Assay results: ChEMBL document CHEMBL1201862, “PubChem BioAssay data set” (2004)
The source made the active and inactive calls.

Columns and labels:
[1] = target: T1, Ubiquitin-conjugating enzyme E2 N (Homo sapiens, UniProt P61088); type: functional;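 further: Dose-response confirmation in a TR-FRET assay detecting UBC13-driven polyubiquitin chain formation, inhibition measured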
T1 sequence (P61088 whole entry): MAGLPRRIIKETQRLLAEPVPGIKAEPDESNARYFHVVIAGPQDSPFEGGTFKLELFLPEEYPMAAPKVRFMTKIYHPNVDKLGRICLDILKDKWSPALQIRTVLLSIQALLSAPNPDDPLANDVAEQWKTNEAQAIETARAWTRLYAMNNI

[2] = target: T2, Corticotropin-releasing factor receptor 2/Corticotropin-releasing factor-binding protein (Homo sapiens, UniProt P24387+Q13324); assay: Dose Response confirmation of uHTS hits for small molecule antagonists of the CRF-binding protein and CRF-R2 receptor complex.; type: functional; settings: read-out: IC50_Mean
T2 sequence (Q13324 whole entry): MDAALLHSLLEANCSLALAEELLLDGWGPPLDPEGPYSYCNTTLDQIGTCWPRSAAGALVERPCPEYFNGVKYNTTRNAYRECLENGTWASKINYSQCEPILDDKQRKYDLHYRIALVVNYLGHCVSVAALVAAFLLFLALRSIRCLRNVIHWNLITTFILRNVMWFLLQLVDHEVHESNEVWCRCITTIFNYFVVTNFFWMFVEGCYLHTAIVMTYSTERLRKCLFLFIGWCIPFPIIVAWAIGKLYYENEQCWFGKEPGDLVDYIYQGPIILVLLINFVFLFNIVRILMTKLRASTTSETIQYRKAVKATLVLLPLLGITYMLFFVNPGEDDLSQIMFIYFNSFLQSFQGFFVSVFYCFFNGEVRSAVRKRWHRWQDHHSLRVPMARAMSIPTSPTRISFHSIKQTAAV
T2 sequence (P24387 whole entry): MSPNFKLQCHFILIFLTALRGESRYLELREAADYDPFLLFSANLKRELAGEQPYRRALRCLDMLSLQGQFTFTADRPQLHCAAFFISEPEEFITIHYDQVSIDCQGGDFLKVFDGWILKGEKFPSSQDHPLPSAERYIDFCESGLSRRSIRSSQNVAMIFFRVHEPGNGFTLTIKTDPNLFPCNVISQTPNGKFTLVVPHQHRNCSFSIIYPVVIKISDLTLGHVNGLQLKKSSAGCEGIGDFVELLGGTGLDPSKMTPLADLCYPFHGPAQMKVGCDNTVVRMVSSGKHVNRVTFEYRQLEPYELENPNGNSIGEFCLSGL

[3] = target: T2, Corticotropin-releasing factor receptor 2/Corticotropin-releasing factor-binding protein; assay: activators of CRF receptor 2 with binding protein – uHTS hits, confirmation (AID 602473); type: functional; settings: read-out: EC50_Mean
[4] = target: T3, Carboxy-terminal domain RNA polymerase II polypeptide A small phosphatase 1 (Homo sapiens, UniProt Q9GZU7); assay: inhibitors of CTDSP1, concentration-response testing, biochemical assay, absorbance-based, actives from ultra-high-throughput screening (AID 540297); type: functional
T3 sequence (Q9GZU7 whole entry): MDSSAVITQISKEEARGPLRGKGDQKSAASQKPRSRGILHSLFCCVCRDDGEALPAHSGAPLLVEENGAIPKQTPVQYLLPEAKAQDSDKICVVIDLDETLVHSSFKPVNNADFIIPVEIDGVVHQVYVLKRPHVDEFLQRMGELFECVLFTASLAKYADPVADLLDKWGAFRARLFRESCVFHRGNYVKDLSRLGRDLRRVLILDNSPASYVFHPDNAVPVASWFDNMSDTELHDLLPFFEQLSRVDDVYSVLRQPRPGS

[5] = target: Luciferin 4-monooxygenase (Photinus pyralis, UniProt P08659); assay: firefly luciferase enzyme inhibitors, dose response, biochemical, luminescence (AID 1891)
[6] = Luminescence Cell-Based Dose Confirmation HTS to Identify Inhibitors of Platelet Dense Granule Release. [Related pubchem assays: 1663 (Primary HTS), 1678 (Summary of Project)]; type: functional
[7] = target: T4, Rac GTPase-activating protein 1 (Homo sapiens, UniProt Q9H0H5); assay: MgcRacGAP GTPase-activating activity inhibitors, confirmation, biochemical, ADP Hunter fluorescence, primary and confirmatory (AID 624330); type: functional
T4 sequence (Q9H0H5 whole entry): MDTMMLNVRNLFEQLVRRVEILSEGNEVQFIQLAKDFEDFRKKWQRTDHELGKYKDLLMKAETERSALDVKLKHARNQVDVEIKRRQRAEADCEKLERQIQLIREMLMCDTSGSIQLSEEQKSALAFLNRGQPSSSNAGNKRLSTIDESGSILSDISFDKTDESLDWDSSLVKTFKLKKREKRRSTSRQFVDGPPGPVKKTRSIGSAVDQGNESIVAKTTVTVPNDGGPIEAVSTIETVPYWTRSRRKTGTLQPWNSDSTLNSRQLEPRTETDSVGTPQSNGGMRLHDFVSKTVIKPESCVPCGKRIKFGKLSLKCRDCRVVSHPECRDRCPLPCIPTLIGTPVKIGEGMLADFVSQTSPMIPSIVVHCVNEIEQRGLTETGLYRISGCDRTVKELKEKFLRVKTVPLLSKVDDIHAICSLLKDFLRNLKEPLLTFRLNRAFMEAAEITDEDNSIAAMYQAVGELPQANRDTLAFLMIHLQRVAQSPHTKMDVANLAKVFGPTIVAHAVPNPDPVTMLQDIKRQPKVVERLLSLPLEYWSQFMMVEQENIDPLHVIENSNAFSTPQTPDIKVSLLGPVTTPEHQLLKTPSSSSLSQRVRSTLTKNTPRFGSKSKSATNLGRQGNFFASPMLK

[8] = microbe, parasite or virus in culture; type: functional; settings: Mycobacterium tuberculosis
cells = type: functional
[9] = system: Streptococcus sp. 'group A'; assay: growth inhibition of control SK(-) GAS strain, dose response, counter-screen for streptokinase expression inhibitor project, luminescence, kanamycin, BacTiterGlo, confirmation (AID 1900); type: functional, organism-based
Streptokinase A = target: T5, Streptokinase A (Streptococcus pyogenes serotype M1, UniProt P10520); assay: S. pyogenes streptokinase expression inhibitors, potency, dose response, plasminogen activation absorbance, OD405 (AID 1914); type: functional, Streptococcus pyogenes M1 GAS;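 further: secreted streptokinase activity via plasminogen activation per viability signal from cell pellet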
T5 sequence (P10520 whole entry): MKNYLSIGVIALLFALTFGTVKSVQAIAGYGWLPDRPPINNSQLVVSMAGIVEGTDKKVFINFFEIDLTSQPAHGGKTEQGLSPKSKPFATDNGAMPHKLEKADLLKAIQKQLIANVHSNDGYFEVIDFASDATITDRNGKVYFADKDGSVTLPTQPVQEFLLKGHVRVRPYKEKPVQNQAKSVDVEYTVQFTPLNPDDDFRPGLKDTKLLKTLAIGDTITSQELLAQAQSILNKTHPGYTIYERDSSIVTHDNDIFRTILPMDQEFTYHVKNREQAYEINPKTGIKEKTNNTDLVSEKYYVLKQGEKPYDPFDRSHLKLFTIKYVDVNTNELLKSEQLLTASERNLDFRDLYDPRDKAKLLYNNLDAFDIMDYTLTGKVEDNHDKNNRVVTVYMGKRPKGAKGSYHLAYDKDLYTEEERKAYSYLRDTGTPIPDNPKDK

Streptococcus = assay: Group A Streptococcus viability loss, dose response, counter-screen for streptokinase expression inhibitor project, luminescence, BacTiterGlo (AID 1915); type: functional, organism-based;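 further: potency for reduction of bacterial viability or growth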
[10] = Luminescence Cell-Based Dose Retest to Confirm Inhibitors of Cancer Stem Cells. [Related pubchem assays (depositor defined):AID2717, AID2721]; type: functional; settings: Homo sapiens
Cytochrome P450 2C19 = Cytochrome P450 2C19 (Homo sapiens, UniProt P33261); assay: Cytochrome panel assay with activity outcomes. Panel member name: p450-cyp2c19 Compounds with AC50 equal or less than 10 uM are considered active; type: functional; settings: read-out: AC50
Cytochrome P450 2C9 = Cytochrome P450 2C9 (Homo sapiens, UniProt P11712)
Paired box protein Pax-8 = Paired box protein Pax-8 (Homo sapiens, UniProt Q06710); assay: inhibitors of PAX8-driven TPO luciferase reporter, dose response, RMG-I cells, cherry-pick (AID 687027); type: functional, cell-based;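 further: luciferase reporter driven by Pax8 target thyroperoxidase promoter measured by SteadyGlo luminescence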
[11] = HEp-2 cell cytotoxicity, dose response, cytotoxicity control for RSV inhibitor project, HTS (AID 2410); type: functional; settings: human respiratory syncytial virus

Luciferin 4-monooxygenase, sequence (P08659 whole entry): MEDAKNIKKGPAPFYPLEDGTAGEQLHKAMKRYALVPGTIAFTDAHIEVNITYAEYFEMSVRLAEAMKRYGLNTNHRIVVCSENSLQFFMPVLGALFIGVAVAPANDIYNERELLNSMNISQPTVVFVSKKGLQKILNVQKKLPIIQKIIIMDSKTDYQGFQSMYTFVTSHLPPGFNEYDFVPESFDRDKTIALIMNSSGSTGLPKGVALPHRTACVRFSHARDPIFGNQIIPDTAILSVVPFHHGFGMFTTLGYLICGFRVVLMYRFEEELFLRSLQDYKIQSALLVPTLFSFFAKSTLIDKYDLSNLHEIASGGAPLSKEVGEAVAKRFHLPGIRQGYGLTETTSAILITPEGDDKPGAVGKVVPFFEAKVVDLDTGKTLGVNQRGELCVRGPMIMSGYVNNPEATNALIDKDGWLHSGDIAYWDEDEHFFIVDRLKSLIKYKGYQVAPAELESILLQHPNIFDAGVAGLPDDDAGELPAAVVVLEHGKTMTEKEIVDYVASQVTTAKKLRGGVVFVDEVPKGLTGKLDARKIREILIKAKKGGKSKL
Paired box protein Pax-8, sequence (Q06710 whole entry): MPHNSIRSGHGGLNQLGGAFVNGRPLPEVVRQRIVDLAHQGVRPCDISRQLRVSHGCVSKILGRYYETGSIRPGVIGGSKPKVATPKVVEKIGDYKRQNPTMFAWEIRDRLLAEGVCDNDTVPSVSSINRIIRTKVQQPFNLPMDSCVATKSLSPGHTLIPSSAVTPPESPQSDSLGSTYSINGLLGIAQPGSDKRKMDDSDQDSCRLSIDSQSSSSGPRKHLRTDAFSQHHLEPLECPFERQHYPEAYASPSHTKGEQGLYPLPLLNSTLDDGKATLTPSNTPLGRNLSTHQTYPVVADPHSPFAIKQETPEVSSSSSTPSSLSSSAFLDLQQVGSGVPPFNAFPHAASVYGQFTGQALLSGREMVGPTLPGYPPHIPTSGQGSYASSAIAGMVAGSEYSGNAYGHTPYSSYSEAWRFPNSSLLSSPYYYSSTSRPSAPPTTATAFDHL
Cytochrome P450 2C19, sequence (P33261 whole entry): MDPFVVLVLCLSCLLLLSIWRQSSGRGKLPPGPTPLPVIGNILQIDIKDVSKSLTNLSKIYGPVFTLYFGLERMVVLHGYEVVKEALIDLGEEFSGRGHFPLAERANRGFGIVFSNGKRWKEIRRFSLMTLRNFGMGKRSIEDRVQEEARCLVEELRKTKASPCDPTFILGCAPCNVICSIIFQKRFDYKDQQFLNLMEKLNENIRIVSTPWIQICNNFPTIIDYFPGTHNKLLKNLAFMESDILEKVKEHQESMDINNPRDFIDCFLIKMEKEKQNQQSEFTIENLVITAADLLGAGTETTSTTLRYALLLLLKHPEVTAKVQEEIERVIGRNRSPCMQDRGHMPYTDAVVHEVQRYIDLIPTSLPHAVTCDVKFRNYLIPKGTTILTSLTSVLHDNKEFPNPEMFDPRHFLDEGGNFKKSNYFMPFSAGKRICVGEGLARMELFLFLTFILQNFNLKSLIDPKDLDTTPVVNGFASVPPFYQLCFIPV
Cytochrome P450 2C9, sequence (P11712 whole entry): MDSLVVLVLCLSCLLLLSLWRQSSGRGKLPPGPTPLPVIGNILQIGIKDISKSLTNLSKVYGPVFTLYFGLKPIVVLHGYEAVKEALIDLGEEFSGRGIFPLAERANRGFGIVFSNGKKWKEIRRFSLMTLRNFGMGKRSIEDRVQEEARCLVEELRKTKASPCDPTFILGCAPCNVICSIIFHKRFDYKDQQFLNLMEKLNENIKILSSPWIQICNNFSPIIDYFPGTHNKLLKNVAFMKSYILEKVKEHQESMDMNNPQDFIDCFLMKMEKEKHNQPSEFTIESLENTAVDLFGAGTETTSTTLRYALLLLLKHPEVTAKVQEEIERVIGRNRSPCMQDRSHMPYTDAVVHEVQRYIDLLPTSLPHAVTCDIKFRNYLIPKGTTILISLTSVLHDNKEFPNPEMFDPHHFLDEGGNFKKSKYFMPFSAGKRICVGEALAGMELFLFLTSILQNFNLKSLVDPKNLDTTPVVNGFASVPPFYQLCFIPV

O=C1NC2(CCCCCC2)N=C1c1ccc(Br)cc1
IC50 [1]: > 20 µM (inactive)

N#CCSc1nc2sccc2c(=O)n1-c1ccccc1
IC50 [2]: > 47.1 µM (inactive)
EC50 [3]: > 53 µM (inactive)

Cc1c(CC(=O)O)c(=O)oc2c(C)c3occ(-c4ccc(Br)cc4)c3cc12
IC50 [4]: 7.37 µM (active)

Cc1ccc(C2=[N+]([O-])C3(CCCCC/C3=N\O)N(O)C2(C)C)o1 (centres undefined)
EC50 [5]: > 112 µM (not active)
EC50 [6]: > 112 µM (not active)

CCCCCc1cc(=O)oc2c(C(CCN3CCCC3)c3cc(OC)c(OC)c(OC)c3)c(OC)cc(OC)c12 (centres undefined)
IC50 [1]: > 20 µM (inactive)

CCOC(=O)C1=C(c2ccccc2)O/C(=C(\C(=O)OC)C(F)(F)F)S1
IC50 [1]: > 20 µM (inactive)

CCCC(=O)NC(=S)Nc1cccc2c(O)cccc12
IC50 [7]: 47.7 µM (active)

Cc1cc(C)nc(SCc2nnc(SCc3ccc([N+](=O)[O-])cc3)n2Cc2ccco2)n1
IC50 [2]: > 47.1 µM (inactive)
EC50 [3]: > 53 µM (inactive)

O=C(COc1ccccc1)N1CCN(C2CCCC2)CC1
IC50 [7]: 127 µM (active)

Cc1cc(C=C2C(=O)NC(=S)NC2=O)c(C)n1C1CCCC1
CC50 [8]: > 40 µM (active)
IC50 (cells): 10.4 µM (active)

COc1ccc(CCNC(=O)c2cc3c(=O)n4ccccc4nc3n(Cc3ccco3)c2=N)cc1OC
EC50 [5]: > 112 µM (not active)
EC50 [6]: 44 µM (active)

COC(=O)C1=C(C)N(Cc2ccccc2)C(NCc2cc(OC)c(OC)c(OC)c2)=N[C@H]1c1ccc(Br)cc1
IC50 [1]: > 20 µM (inactive)

O=C(Nc1cc(S(=O)(=O)N2CCCCC2)ccc1Cl)C1COc2ccccc2O1 (centres undefined)
IC50 [4]: 46.4 µM (active)

CCOC(=O)c1ccc(COC(=O)c2ccc(-c3nnc(-c4ccccc4)o3)cc2)o1
EC50 [5]: 28.5 µM (active)
EC50 [6]: 8.77 µM (active)
IC50 (cells): > 50 µM (active)

O=C(Cc1ccccc1)N/N=C/c1ccc(OCC(=O)Nc2ccccc2)cc1
IC50 [4]: 10.2 µM (active)

CCOc1ccc(N)cc1OC
IC50 [7]: 42.9 µM (active)

Cc1cc(C(=O)COc2ccc3ccc(=O)oc3c2)c(C)n1Cc1cccs1
IC50 [4]: 6.2 µM (active)

Cc1cc(-c2nnc(CCC(=O)NC(C)c3cccc4ccccc34)o2)no1 (centres undefined)
EC50 [5]: > 112 µM (not active)
EC50 [6]: > 112 µM (not active)

CC(C)=CCOc1ccc([C@@H]2COc3c(ccc4c3C=CC(C)(C)O4)C2)c(O)c1
EC50 [9]: 2.28 µM (active)
EC50 (Streptokinase A): > 150 µM (not active)
CC50 [8]: > 40 µM (active)
EC50 (Streptococcus): 2.25 µM (active)
AC50 [10]: 3.44 µM (active)

COC(=O)c1cc(NCc2ccccc2F)ccc1N1CCOCC1
IC50 [7]: 168 µM (active)

O=S(=O)(c1cccc(-c2nnc(SC(F)F)n2-c2ccccc2)c1)N1CCCCC1
EC50 [5]: > 112 µM (not active)
EC50 [6]: > 112 µM (not active)

C=CCOc1ccc(/C=C\c2nc(O)c([N+](=O)[O-])c(O)n2)cc1OC
IC50 [4]: 13.7 µM (active)

Cc1cc(OC(C)C(=O)NCc2ccncc2)c2c3c(c(=O)oc2c1)CCC3 (centres undefined)
EC50 [5]: > 112 µM (not active)
EC50 [6]: > 112 µM (not active)

COc1cc(-c2nc3cnccn3c2Nc2ccc(C)cc2)ccc1O
IC50 [7]: 29.3 µM (active)

C#CCOCCOCCOCCNc1nc(N2CCOCC2)nc(N2CCN(C(=O)CCCCCCCCCCNC(=O)[C@H](CO)n3cc(CCCCCN)nn3)CC2)n1
IC50 [1]: > 20 µM (inactive)

COC(=O)c1oc2ccc(Br)cc2c1-n1cccc1
EC50 [5]: > 112 µM (not active)
EC50 [6]: > 112 µM (not active)

COC(=O)c1sc(N)c(C(=O)OC)c1COC(=O)CNS(=O)(=O)c1ccc(C)cc1
EC50 [5]: > 112 µM (not active)
EC50 [6]: > 112 µM (not active)

Cc1ccccc1CN1CCC(CNC(=O)C2CCCN(c3ncnc4c3nc3n4CCCCC3)C2)CC1 (centres undefined)
IC50 [1]: > 20 µM (inactive)

CCOC(=O)c1cc(CC)sc1NC(=O)c1cc(OCC)c(OCC)c(OCC)c1
CC50 [8]: > 40 µM (active)
AC50 (Cytochrome P450 2C19): 25.1 µM (inconclusive)
AC50 (Cytochrome P450 2C9): 20 µM (inconclusive)

O=C(COc1cccc2c1CCN(Cc1ccc(Br)cc1)C2=O)NCc1ccco1
IC50 [2]: > 47.1 µM (inactive)
EC50 [3]: > 53 µM (inactive)

Nc1ccc(-c2nc3ccccc3o2)cc1
EC50 [5]: 51.5 µM (active)
EC50 [6]: > 112 µM (not active)

COc1ccc(F)cc1S(=O)(=O)NCC(=O)NCc1cc(=O)n(C)c(=O)n1C
IC50 [2]: > 47.1 µM (inactive)
EC50 [3]: > 53 µM (inactive)

OCCN1CCN(Cc2ccc3ccccc3c2)CC1
IC50 [7]: 95.6 µM (active)

C[C@@H]1CN([C@@H](C)CO)C(=O)c2ccccc2-c2ccccc2CO[C@@H]1CN(C)Cc1ccc2c(c1)OCCN2C
AC50 (Paired box protein Pax-8): 29.5 µM (active)

Cc1nnc2n(Cc3ccccc3)c(=O)c3c4c(sc3n12)COC(C(C)C)C4 (centres undefined)
CC50 [11]: 31.3 µM (active)
EC50 [5]: > 112 µM (not active)
EC50 [6]: > 112 µM (not active)

C[C@H](CO)N1C[C@H](C)[C@@H](CN(C)Cc2ccc(Cl)c(Cl)c2)OCCCC[C@H](C)Oc2ccc(NC(=O)Nc3ccc(C(F)(F)F)cc3)cc2C1=O
AC50 (Paired box protein Pax-8): 4.17 µM (active)
